Each molecule was assayed against T1, JHDM1A (Homo sapiens, UniProt Q9Y2K7) (assay: FP competitive binding assay with tracer 3 and JHDM1A). Details: 60 nM JHDM1A, 1 nM 3, Ni2+ buffer, 4 h.
T1 sequence (Q9Y2K7 1-517): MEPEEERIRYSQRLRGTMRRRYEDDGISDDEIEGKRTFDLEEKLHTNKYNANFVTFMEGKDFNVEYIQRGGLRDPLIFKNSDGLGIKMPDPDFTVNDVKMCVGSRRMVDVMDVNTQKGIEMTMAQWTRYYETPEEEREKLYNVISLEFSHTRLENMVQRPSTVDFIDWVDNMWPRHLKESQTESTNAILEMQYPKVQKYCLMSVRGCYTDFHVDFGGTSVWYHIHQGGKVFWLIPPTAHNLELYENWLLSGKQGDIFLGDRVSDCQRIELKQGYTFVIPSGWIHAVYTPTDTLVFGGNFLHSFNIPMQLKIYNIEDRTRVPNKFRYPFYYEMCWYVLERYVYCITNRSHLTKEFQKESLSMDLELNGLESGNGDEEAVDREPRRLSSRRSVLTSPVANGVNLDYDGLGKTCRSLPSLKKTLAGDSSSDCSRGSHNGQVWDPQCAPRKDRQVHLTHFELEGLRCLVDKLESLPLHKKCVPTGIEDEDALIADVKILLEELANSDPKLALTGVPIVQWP
For `O=C(O)/C=C/C(=O)N(O)CCCCNCc1ccc(COC(=O)Nc2cccc3ccccc23)cc1` [Compound 2, methylstat acid], the “displacement of tracer 3 from JHDM1A” value was “can displace 3 from JHDM1A”. `O=C(O)CNC(=O)C(=O)O` [NOG, N-oxalyl glycine] was tested, and the “displacement of tracer 3 from JHDM1A” value was “can displace 3 from JHDM1A”. For `O=C(O)CCC(=O)C(=O)O` [αKG, α-ketoglutarate], the “displacement of tracer 3 from JHDM1A” value was “can displace 3 from JHDM1A”.
